{"source": "the NIST ThermoML archive (doi:10.1016/j.jct.2014.01.031)", "key": {"[1]": {"experiment": "xn = mol fraction of the nth substance listed", "conditions": "298.15 K, 101 kPa, Liquid; for viscosity: Falling or rolling sphere viscometry; for electrical conductivity: Alternating current cell with electrodes"}, "[2]": {"conditions": "298.15 K, 101 kPa, Liquid; for viscosity: Falling or rolling sphere viscometry; for self diffusion coefficient: PFG NMR Spectroscopy; for electrical conductivity: Alternating current cell with electrodes"}}, "note": "± gives the expanded uncertainty stated by the source.", "data": [{"smiles": "O", "note": "[water] + CCCCn1cc[n+](C)c1.COS(=O)(=O)[O-]", "values": [{"measurement": "viscosity", "setting": "[1]; x1 = 1", "value": "0.89 ± 0.04", "unit": "mPa·s"}]}, {"smiles": "O", "note": "[water] + CCn1cc[n+](C)c1.COS(=O)(=O)[O-]", "values": [{"measurement": "viscosity", "setting": "[1]; x1 = 1", "value": "0.89 ± 0.04", "unit": "mPa·s"}]}, {"smiles": "CCCCn1cc[n+](C)c1.COS(=O)(=O)[O-]", "note": "[1-butyl-3-methylimidazolium methyl sulfate] + O", "values": [{"measurement": "electrical conductivity", "setting": "[1]; x2 = 0", "value": "0.126 ± 0.002", "unit": "S/m"}, {"measurement": "electrical conductivity", "setting": "[1]; x2 = 0.1999", "value": "0.247 ± 0.003", "unit": "S/m"}, {"measurement": "electrical conductivity", "setting": "[1]; x2 = 0.4037", "value": "0.4 ± 0.005", "unit": "S/m"}, {"measurement": "electrical conductivity", "setting": "[1]; x2 = 0.617", "value": "0.799 ± 0.01", "unit": "S/m"}, {"measurement": "electrical conductivity", "setting": "[1]; x2 = 0.7937", "value": "1.77 ± 0.021", "unit": "S/m"}, {"measurement": "electrical conductivity", "setting": "[1]; x2 = 0.9437", "value": "3.42 ± 0.041", "unit": "S/m"}, {"measurement": "electrical conductivity", "setting": "[1]; x2 = 0.992", "value": "1.92 ± 0.044", "unit": "S/m"}, {"measurement": "electrical conductivity", "setting": "[1]; x2 = 0.9977", "value": "0.849 ± 0.039", "unit": "S/m"}, {"measurement": "viscosity", "setting": "[1]; x2 = 0", "value": "223 ± 12", "unit": "mPa·s"}, {"measurement": "viscosity", "setting": "[1]; x2 = 0.1999", "value": "112 ± 4", "unit": "mPa·s"}, {"measurement": "viscosity", "setting": "[1]; x2 = 0.4037", "value": "63.1 ± 2.1", "unit": "mPa·s"}, {"measurement": "viscosity", "setting": "[1]; x2 = 0.617", "value": "27.6 ± 1", "unit": "mPa·s"}, {"measurement": "viscosity", "setting": "[1]; x2 = 0.7937", "value": "11.5 ± 0.4", "unit": "mPa·s"}]}, {"smiles": "O", "note": "[water]", "values": [{"measurement": "viscosity", "setting": "[2]", "value": "0.89 ± 0.04", "unit": "mPa·s"}, {"measurement": "self diffusion coefficient", "setting": "[2]", "value": "2.3e-09", "unit": "m2/s"}]}, {"smiles": "CCCCn1cc[n+](C)c1.COS(=O)(=O)[O-]", "note": "[1-butyl-3-methylimidazolium methyl sulfate]", "values": [{"measurement": "electrical conductivity", "setting": "[2]", "value": "0.126 ± 0.002", "unit": "S/m"}, {"measurement": "viscosity", "setting": "[2]", "value": "223 ± 12", "unit": "mPa·s"}, {"measurement": "self diffusion coefficient", "setting": "[2]", "value": "1.3e-11", "unit": "m2/s"}]}, {"smiles": "CCn1cc[n+](C)c1.COS(=O)(=O)[O-]", "note": "[1-ethyl-3-methylimidazolium methylsulfate] + O", "values": [{"measurement": "electrical conductivity", "setting": "[1]; x2 = 0", "value": "0.547 ± 0.007", "unit": "S/m"}, {"measurement": "electrical conductivity", "setting": "[1]; x2 = 0.2542", "value": "0.909 ± 0.011", "unit": "S/m"}, {"measurement": "electrical conductivity", "setting": "[1]; x2 = 0.4994", "value": "1.6 ± 0.019", "unit": "S/m"}, {"measurement": "electrical conductivity", "setting": "[1]; x2 = 0.7519", "value": "3.16 ± 0.038", "unit": "S/m"}, {"measurement": "electrical conductivity", "setting": "[1]; x2 = 0.8053", "value": "3.99 ± 0.048", "unit": "S/m"}, {"measurement": "electrical conductivity", "setting": "[1]; x2 = 0.9249", "value": "6.23 ± 0.075", "unit": "S/m"}, {"measurement": "electrical conductivity", "setting": "[1]; x2 = 0.9737", "value": "4.58 ± 0.055", "unit": "S/m"}, {"measurement": "viscosity", "setting": "[1]; x2 = 0", "value": "81.4 ± 2.7", "unit": "mPa·s"}, {"measurement": "viscosity", "setting": "[1]; x2 = 0.2542", "value": "39.7 ± 1.3", "unit": "mPa·s"}, {"measurement": "viscosity", "setting": "[1]; x2 = 0.4994", "value": "20.2 ± 0.7", "unit": "mPa·s"}, {"measurement": "viscosity", "setting": "[1]; x2 = 0.7519", "value": "8.59 ± 0.31", "unit": "mPa·s"}, {"measurement": "viscosity", "setting": "[1]; x2 = 0.8053", "value": "6.62 ± 0.25", "unit": "mPa·s"}, {"measurement": "viscosity", "setting": "[1]; x2 = 0.9249", "value": "2.59 ± 0.1", "unit": "mPa·s"}, {"measurement": "viscosity", "setting": "[1]; x2 = 0.9737", "value": "1.43 ± 0.06", "unit": "mPa·s"}]}, {"smiles": "CCn1cc[n+](C)c1.COS(=O)(=O)[O-]", "note": "[1-ethyl-3-methylimidazolium methylsulfate]", "values": [{"measurement": "electrical conductivity", "setting": "[2]", "value": "0.547 ± 0.007", "unit": "S/m"}, {"measurement": "viscosity", "setting": "[2]", "value": "81.4 ± 2.7", "unit": "mPa·s"}, {"measurement": "self diffusion coefficient", "setting": "[2]", "value": "4.6e-11", "unit": "m2/s"}]}]}
